In patent US7060721B1, “Imidazole compounds and medicinal use thereof” (Fujisawa Pharmaceutical Co., Ltd., priority 1998, dated 2006):

How the values were obtained:
db/db mice = experiment: Blood sugar level depressing activity in db/db mice; format: in vivo; conditions: female db/db mice; dose 3.2 mg/kg; drug-mixed diet given for 14 days; difference between db/db control group and +/+ mice taken as 100%
Protocol: (Blood Sugar Level Depressing Activity in db/db Mice)
Female C57BL/KsJ-dbm db+/db+, C57BL/KsJ-dbm +m/+m (Jackson Laboratory) mice (5 weeks old) were purchased and subjected to the test after 2–3 weeks of acclimating period.
The test drug was mixed with a powder diet (CE-2, Clea Japan, Inc.) in a mortar. In the case of administration in 100 mg/kg, the mixing proportion was 0.1%, in the case of 30 mg/kg, the proportion was 0.03% and in the case of 10 mg/kg, the proportion was 0.01%. The diet was changed twice a week for each group. The amount of the diet given and the amount left were recorded and the diet intake was calculated by determining the difference.
The female db/db mice were grouped according to body weight, blood sugar level and triglyceride concentration in plasma. […] The blood sugar value, triglyceride concentration in plasma and insulin concentration in plasma were measured at day 0 and day 14, and blood sugar value and triglyceride concentration in plasma were measured at day 7. Body weight was measured at day 0, day 7 and day 14. […]
Blood sugar value was measured using 10–15 μl of plasma and in accord with glucose oxidase method (glucose CII-Test Wako, Wako Pure Chemicals Co., Ltd.). The triglyceride concentration in plasma was measured using 10–15 μl of plasma and in accord with GPO-p-chlorophenol method (triglyceride G-Test Wako) or GPO-DAOS method (triglyceride E-Test Wako). […]

In the case of Cc1ccc(S(=O)(=O)NC(=O)/C=C/c2c(Cl)nc(C)n2Cc2ccc(-c3ccccc3)cc2Cl)cc1 [Compound A, (E)-3-[4-chloro-1-(2-chloro-4-phenylbenzyl)-2-methylimidazol-5-yl]-N-((4-methylbenzene)sulfonyl)-2-propenamide], the “Blood sugar decrease (%)” value (db/db mice) is reported as 63%.
Cc1nc(Cl)c(/C=C/C(=O)NS(=O)(=O)/C=C/c2ccccc2)n1Cc1ccc(C#Cc2ccccc2)cc1Cl [Example 6, (2E)-3-(4-chloro-1-(2-chloro-4-(phenylethynyl)benzyl)-2-methylimidazol-5-yl)-N-(((E)-2-phenylethenyl)sulfonyl)-2-propenamide] gave a melting point of 220 to 222 °C.
Compound Cc1nc(Cl)c(/C=C/C(=O)NS(=O)(=O)/C=C/c2ccccc2)n1Cc1ccc([N+](=O)[O-])cc1Cl [Example 33, (E)-3-(4-chloro-1-(2-chloro-4-nitrobenzyl)-2-methylimidazol-5-yl)-N-(((E)-2-phenylethenyl)sulfonyl)-2-propenamide] has a melting point of 199 to 201 °C.
CCc1nc(Cl)c(/C=C/C(=O)NS(=O)(=O)c2ccc(C)cc2)n1Cc1ccc(/C=C/c2ccccc2)cc1Cl [Example 60, (E)-3-(4-chloro-1-(2-chloro-4-((E)-2-phenylethenyl)benzyl)-2-ethylimidazol-5-yl)-N-(4-methylbenzenesulfonyl)-2-propenamide] showed a melting point of 250 to 252 °C.
With CCCCCOc1ccc(Cn2c(/C=C(\CCCCC)C(=O)NS(=O)(=O)/C=C/c3ccccc3)cnc2C)c(Cl)c1 [Example 68, (E)-3-(1-(2-chloro-4-(1-pentyloxy)benzyl)-2-methylimidazol-5-yl)-2-(1-pentyl)-N-((E)-2-phenylethenesulfonyl)-2-propenamide] the melting point was 168 to 169 °C.
